The source of these data is patent US20030206892A1, “Methods of modulating activity of DXR” (priority 2000, published 2003).

What all share (type): cell-based
Test [1] concerns E. coli DH5α. Briefly: E. coli DXR MIC experiment, parent strain. The following applies: Escherichia coli, LB, overnight at 37° C., read-out: E. coli DXR MICs, E. coli DH5α. As to the method: (§1) The MIC protocol used techniques well known to those skilled in the art. All strains were grown overnight in LB with appropriate selection. The compounds are mixed or put in contact with DMSO. Fifty μl of LB was placed in each well of the microtiter plate, except in Column 1. To obtain a top concentration of 256 μl/mil of compound after the inoculum is added: 10 μl of a 5.12 mg/ml stock is mixed with 90 μl of LB. This mixture was placed in the first well of its assigned row of a 96-well plate. The compound was then serially diluted 1:2 by taking 50 μl from the first well in the row and mixing it with the second well of the same row, Column 2. Then, 50 μl from that well was mixed with the third well in the row, Column 3 and so on until Column 11. Fifty μl of the serial dilution from Column 11 was discarded. The final well in the row, column 12, was the growth control. No compound was placed in column 12. The overnight culture was diluted 1:50 into LB. Fifty μl of this culture dilution was added to every well of the microtiter plate. This dilutes the inoculum and drug 1:2. The final inoculum was approximately 1×10^5 cells/ml. The 96-well pates are then incubated overnight at 37° C.

The subject of test [2] is E. coli DH5α + (pET28). Briefly: E. coli DXR MIC experiment, empty vector strain. The following applies: Escherichia coli, LB, overnight at 37° C., read-out: E. coli DXR MICs, E. coli DH5α + (pET28). As to the method: as §1
Test [3] has as its system E. coli DH5α + (pET28::dxr), E. coli dxr. Briefly: E. coli DXR MIC experiment, strain overexpressing E. coli DXR. As to the method:
as §1

The test system of test [4] is E. coli DH5α + (pET28::dxr), H. influenzae dxr. In words: H. influenzae DXR MIC experiment, strain expressing H. influenzae DXR. As to the method:
as §1, with “Fifty μl of LB was placed in each well of the microtiter plate, except in Column 1. To obtain a top concentration of 256 μl/mil of compound after the inoculum is added: 10 μl of a 5.12 mg/ml stock is mixed with 90 μl of LB.” left out, “The overnight culture was diluted 1:50 into LB.” left out

The structures appear in SMILES notation. ≈ marks a conversion by molar mass, not a printed value.

For `CC1(C)S[C@@H]2[C@H](NC(=O)[C@H](N)c3ccc(O)cc3)C(=O)N2[C@H]1C(=O)O` [Amoxicillin], the MIC in test [1] amounted to 16 µg/mL (≈ 43.8 µM).
For `O=CN(O)CCCP(=O)(O)O` [Fosmidomycin], the MIC amounted to 16 µg/mL (≈ 87.4 µM) in test [1]; 16 µg/mL in test [2]; 128 µg/mL in test [3] (Escherichia coli, read-out: E. coli DXR MICs, E. coli DH5α + (pET28::dxr)); 256 µg/mL in test [4] (Escherichia coli, read-out: H. influenzae DXR MICs, E. coli DH5α + (pET28::dxr)). Further, in test [3] (E. coli cells (DH5α) overexpressing E. coli DXR), the “MIC increase for cells overexpressing E. coli DXR” value is on record as 8 fold. Also, in test [4] (E. coli cells (DH5α) expressing H. influenzae DXR), the “MIC increase for cells expressing H. influenzae DXR” value is reported as 16 fold.
